These results are taken from patent US20220313682A1, “Pharmaceutical Compositions of (6aS)-6-methyl-5,6,6a,7-tetrahydro-4H-dibenzo[de,g]quinoline-10,11-diol” (Aclipse One Inc., priority 2019, published 2022).

The nature of this data set: Solubility in aqueous media / aqueous buffer solutions. It is filed as physicochemical.

As to `CN1CCc2cccc3c2[C@@H]1Cc1ccc(O)c(O)c1-3.Cl` [(6aS)-6-methyl-5,6,6a,7-tetrahydro-4H-dibenzo[de,g]quinoline-10,11-diol hydrochloride], for the setting “hydrochloride salt, aqueous buffer solutions”, the “solubility in the aqueous buffer solutions” value was “low solubility”.
As for `CN1CCc2cccc3c2[C@@H]1Cc1ccc(O)c(O)c1-3` [(6aS)-6-methyl-5,6,6a,7-tetrahydro-4H-dibenzo[de,g]quinoline-10,11-diol], the “solubility in the aqueous media at various pH” value (free base, aqueous media at various pH) is “low solubility”.
